From patent US8232271B2 (priority 2008, dated 2012)

Key:
[1] = biological target: T1, HCV polymerase (NS5B570n-Con1) (Hepatitis C virus genotype 1b, UniProt Q9WMX2); assay: HCV NS5B RNA polymerase activity assay; assay type: biochemical, HCV Con1 strain
T1 construct: contains a 21 amino acid deletion at the C-terminus relative to the full-length HCV polymerase; 6-histidine (N); made in house; host or cells: E. coli BL21(DE) pLysS, plasmid pET17b
Experimental: The enzymatic activity of HCV polymerase (NS5B570n-Con1) was measured as the incorporation of radiolabeled nucleotide monophosphates into acid insoluble RNA products. Unincorporated radiolabeled substrate was removed by filtration and scintillant was added to the washed and dried filter plate containing radiolabeled RNA product. The amount of RNA product generated by NS5B570-Con1 at the end of the reaction was directly proportional to the amount of light emitted by the scintillant.
The N-terminal 6-histidine tagged HCV polymerase, derived from HCV Con1 strain, genotype 1b (NS5B570n-Con1) contains a 21 amino acid deletion at the C-terminus relative to the full-length HCV polymerase and was purified from E. coli strain BL21(DE) pLysS. The construct, containing the coding sequence of HCV NS5B Con1 (GenBank accession number AJ242654) was inserted into the plasmid construct pET17b, downstream of a T7 promoter expression cassette and transformed into E. coli. A single colony was grown overnight as a starter culture and later used inoculate 10 L of LB media supplemented with 100 μg/mL ampicillin at 37° C. Protein expression was induced by the addition of 0.25 mM isopropyl-β-D-thiogalactopyranoside (IPTG) when optical density at […] of the culture was between 0.6 and 0.8 and cells were harvested after 16 to 18 h at 30° C. NS5B570n-Con1 was purified to homogeneity using a three-step protocol including subsequent column chromatography on Ni-NTA, SP-Sepharose HP and Superdex 75 resins.
Each 50 μl enzymatic reaction contained 20 nM RNA template derived from the complementary sequence of the Internal Ribosome Entry Site (cIRES), 20 nM NS5B570n-Con1 enzyme, 0.5 μCi of tritiated UTP (Perkin Elmer catalog no. TRK-412; specific activity: 30 to 60 Ci/mmol; stock solution concentration from 7.5×10^-5 M to 20.6×10^-6 M), 1 μM each ATP, CTP, and GTP, 40 mM Tris-HCl pH 8.0, 40 mM NaCl, 4 mM DTT (dithiothreitol), 4 mM MgCl2, and 5 μl of compound serial diluted in DMSO. Reaction mixtures were assembled in 96-well filter plates (cat #MADVN0B, Millipore Co.) and incubated for 2 h at 30° C. Reactions were stopped by addition of 10% final (v/v) trichloroacetic acid and incubated for 40 min at 4° C. Reactions were filtered, washed with 8 reaction volumes of 10% (v/v) trichloroacetic acetic acid, 4 reaction volumes of 70% (v/v) ethanol, air dried, and 25 μl of scintillant (Microscint 20, Perkin-Elmer) was added to each reaction well.
The amount of light emitted from the scintillant was converted to counts per minute (CPM) on a Topcount® plate reader (Perkin-Elmer, Energy Range: Low, Efficiency Mode: Normal, Count Time: 1 min, Background Subtract: none, Cross talk reduction: Off).
Data was analyzed in Excel® (Microsoft®) and ActivityBase® (Idbs®). The reaction in the absence of enzyme was used to determine the background signal, which was subtracted from the enzymatic reactions. Positive control reactions were performed in the absence of compound, from which the background corrected activity was set as 100% polymerase activity. All data was expressed as a percentage of the positive control. The compound concentration at which the enzyme-catalyzed rate of RNA synthesis was reduced by 50% (IC50) was calculated by fitting
[formula] equation (i) to the data. where “Y” corresponds to the relative enzyme activity (in %), “% Min” is the residual relative activity at saturating compound concentration, “% Max” is the relative maximum enzymatic activity, “X” corresponds to the compound concentration, and “S” is the Hill coefficient (or slope).

SMILES	melting point	IC50 [1]
COc1cc(CN2C(=O)CC(C)(C)CC2=O)c(-c2ccc[nH]c2=O)cc1C(C)(C)C [Compound I-88]	> 300 °C	52 nM
COCCN(C)C(=O)c1cc(OC)c(C(C)(C)C)cc1-c1ccc[nH]c1=O [Compound I-47]	160 to 162 °C	1510 nM
COc1cc(CNS(=O)(=O)Cc2ccccc2)c(-c2ccc[nH]c2=O)cc1C(C)(C)C [Compound I-20]	249 to 250 °C	211 nM
COc1cc(CN2C(=O)c3ccccc3C2=O)c(-c2ccc[nH]c2=O)cc1C(C)(C)C [Compound I-33, 2-[4-tert-Butyl-5-methoxy-2-(2-oxo-1,2-dihydro-pyridin-3-yl)-benzyl]-isoindole-1,3-dione]	277 to 280 °C	35 nM
COc1cc(C(=O)N(C)C)c(-c2ccc[nH]c2=O)cc1C(C)(C)C [Compound I-41]	208 to 210 °C	1680 nM
COc1cc(CNC(=O)c2ccc(NS(C)(=O)=O)cc2)c(-c2ccc[nH]c2=O)cc1C(C)(C)C [Compound I-43, N-[4-tert-butyl-5-methoxy-2-(2-oxo-1,2-dihydro-pyridin-3-yl)-benzyl]-4-methanesulfonylamino-benzamide]	175 to 180 °C	50 nM
COc1cc(CN2Cc3ccc(NS(C)(=O)=O)cc3C2=O)c(-c2ccc[nH]c2=O)cc1C(C)(C)C [Compound I-92]	173 to 175 °C	8 nM
COc1cc(CN(CC2CCNC2)S(C)(=O)=O)c(-c2ccc[nH]c2=O)cc1C(C)(C)C (stereo not shown) [Compound I-31, N-[4-tert-Butyl-5-methoxy-2-(2-oxo-1,2-dihydro-pyridin-3-yl)-benzyl]-N-pyrrolidin-3-ylmethyl-methanesulfonamide]	158 to 160 °C	97 nM
COc1cc(C(C)N(C)S(C)(=O)=O)c(-c2ccc[nH]c2=O)cc1C(C)(C)C (stereo not shown) [Compound I-53, N-{1-[4-tert-Butyl-5-methoxy-2-(2-oxo-1,2-dihydro-pyridin-3-yl)-phenyl]-ethyl}-N-methyl-methanesulfonamide]	205 to 207 °C	187 nM
CC(=O)Nc1ccc(C(C)(C)C)cc1-c1ccc[nH]c1=O [Compound I-8, N-[4-tert-butyl-2-(2-oxo-1,2-dihydro-pyridin-3-yl)-phenyl]-acetamide]	259 to 260 °C	8560 nM
COc1cc(C(=O)N2CC(O)C2)c(-c2ccc[nH]c2=O)cc1C(C)(C)C [Compound I-68]	236 to 238 °C	211 nM
COc1cc(CNC(=O)c2ccc(N)cc2)c(-c2ccc[nH]c2=O)cc1C(C)(C)C [Compound I-42, 4-Amino-N-[4-tert-butyl-5-methoxy-2-(2-oxo-1,2-dihydro-pyridin-3-yl)-benzyl]-benzamide]	165 to 167 °C	36 nM
COc1cc(C#N)c(-c2ccc[nH]c2=O)cc1C(C)(C)C [Compound I-91]	247 to 249 °C	374 nM
COc1cc(CN2CCCCC2=O)c(-c2ccc[nH]c2=O)cc1C(C)(C)C [Compound I-23]	224.6 to 228.9 °C	52 nM
COc1cc(C(=O)O)c(-c2ccc[nH]c2=O)cc1C(C)(C)C [Compound I-4, 4-tert-Butyl-5-methoxy-2-(2-oxo-1,2-dihydro-pyridin-3-yl)-benzoic acid]	244 to 245 °C	27 nM
COCCN1CCN(C(=O)c2cc(OC)c(C(C)(C)C)cc2-c2ccc[nH]c2=O)CC1 [Compound I-67]	179 to 181 °C	3690 nM

SMILES	melting point	IC50 [1]
CCN(Cc1cc(OC)c(C(C)(C)C)cc1-c1ccc[nH]c1=O)S(C)(=O)=O [Compound I-27]	245 to 246 °C	44 nM
COc1cc(C(=O)N(C)Cc2ccncc2)c(-c2ccc[nH]c2=O)cc1C(C)(C)C [Compound I-58]	199 to 201 °C	1140 nM
CCOC(=O)[C@H]1CCC(=O)N1Cc1cc(OC)c(C(C)(C)C)cc1-c1ccc[nH]c1=O [Compound I-70, (R)-1-[4-tert-Butyl-5-methoxy-2-(2-oxo-1,2-dihydro-pyridin-3-yl)-benzyl]-5-oxo-pyrrolidine-2-carboxylic acid ethyl ester]	92 to 95 °C	70 nM
COc1cc(CN(CCOC(C)=O)S(C)(=O)=O)c(-c2ccc[nH]c2=O)cc1C(C)(C)C [Compound I-30, 2-{[4-tert-Butyl-5-methoxy-2-(2-oxo-1,2-dihydro-pyridin-3-yl)-benzyl]-methanesulfonyl-amino}-ethyl acetate]	207 to 208 °C	35 nM
COc1cc(CNS(=O)(=O)c2ccccc2Cl)c(-c2ccc[nH]c2=O)cc1C(C)(C)C [Compound I-87]	231 to 232 °C	358 nM
COc1cc(C(=O)N(C)Cc2ccc(F)cc2)c(-c2ccc[nH]c2=O)cc1C(C)(C)C [Compound I-77]	218 to 220 °C	611 nM
COc1cc(CN2C(=O)CCC2=O)c(-c2ccc[nH]c2=O)cc1C(C)(C)C [Compound I-29]	112.2 to 124.9 °C	68 nM
COc1cc(C(C)NS(C)(=O)=O)c(-c2ccc[nH]c2=O)cc1C(C)(C)C (stereo not shown) [Compound I-52, N-{1-[4-tert-butyl-5-methoxy-2-(2-oxo-1,2-dihydro-pyridin-3-yl)-phenyl]-ethyl}-methanesulfonamide]	284 to 286 °C	654 nM
COc1cc(CN(C2CCNCC2)S(C)(=O)=O)c(-c2ccc[nH]c2=O)cc1C(C)(C)C [Compound I-57]	205 to 208 °C	57 nM
COc1cc(CNC(=O)C2CCCC(NS(C)(=O)=O)C2)c(-c2ccc[nH]c2=O)cc1C(C)(C)C (stereo not shown) [Compound I-82]	162 to 164 °C	30 nM
COc1cc(CN2C(=O)CC[C@H]2CO)c(-c2ccc[nH]c2=O)cc1C(C)(C)C [Compound I-72, 3-[5-tert-Butyl-2-((S)-2-hydroxymethyl-5-oxo-pyrrolidin-1-ylmethyl)-4-methoxy-phenyl]-1H-pyridin-2-one]	146 to 148 °C	77 nM
COc1cc(CN2C(=O)CC[C@@H]2C(=O)O)c(-c2ccc[nH]c2=O)cc1C(C)(C)C [Compound I-71, (R)-1-[4-tert-Butyl-5-methoxy-2-(2-oxo-1,2-dihydro-pyridin-3-yl)-benzyl]-5-oxo-pyrrolidine-2-carboxylic acid]	199 to 200 °C	36 nM
COc1cc(C(=O)N(C)CC#N)c(-c2ccc[nH]c2=O)cc1C(C)(C)C [Compound I-66]	211 to 212 °C	152 nM
CCOC(=O)c1cc(OC)c(C(C)(C)C)cc1-c1ccc[nH]c1=O [Compound I-54, 4-tert-Butyl-5-methoxy-2-(2-oxo-1,2-dihydro-pyridin-3-yl)-benzoic acid ethyl ester]	214 to 215 °C	39 nM
COc1cc(CNS(C)(=O)=O)c(-c2ccc(C)[nH]c2=O)cc1C(C)(C)C [Compound I-37, N-[4-tert-Butyl-5-methoxy-2-(6-methyl-2-oxo-1,2-dihydro-pyridin-3-yl)-benzyl]-methanesulfonamide]	120 to 125 °C	146 nM
COc1cc(Cn2c(=O)n(C)c3ccccc32)c(-c2ccc[nH]c2=O)cc1C(C)(C)C [Compound I-69, 1-[4-tert-Butyl-5-methoxy-2-(2-oxo-1,2-dihydro-pyridin-3-yl)-benzyl]-3-methyl-1,3-dihydro-benzoimidazol-2-one]	140 to 142 °C	34 nM
